Assay [1] has as its system mouse colon cancer CT-26 xenograft. The experiment in a line: Growth of subcutaneous CT-26 xenografts, combination with anti-PD-1 antibody. The settings on record: compound I alone (+ Rat IgG2a isotype), 5 mg/kg orally once a day, 12 days. The class given is in vivo, BALB/c mice. As to the method:
CT-26 cells were subcutaneously inoculated into the right axillary fossa of BALB/c mice at a cell number of 5 × 10^6 per mouse. When the tumor cells successfully formed subcutaneous xenografts in the mice which further grew to an average volume of approximately 100 mm^3, the mice were randomly assigned to the dosing group and the control group. For the anti-PD-1 antibody group, an anti-PD-1 antibody (Bio X Cell Company, InVivoMAb anti-mouse PD-1 (CD279) (catalog : BE0273)) was administered […] once every three days at 10 mg/kg for 12 days. The control group was administrated the same amount of Hamster Ig (Rat IgG2a), as the isotype control of the anti-PD-1 antibody, and the administration route, dosage and frequency were same as those for the anti-PD-1 antibody group. […] Throughout the experiment, the tumor volume and the mice’s body weights were measured twice a week.
The tumor volume (TV) was calculated as TV = ½×a×b^2, where “a” and “b” are the length and width of the xenograft, respectively.
The relative tumor volume (RTV) was calculated from the results of the measurement according to the following equation:
RTV = Vt/V0, where V0 was the tumor volume measured at the beginning of administration (i.e., d0) and Vt was the tumor volume measured at each point.
The evaluation index of the anti-tumor activity was tumor growth inhibition ratio TGI (%), which was calculated as: […]

In assay [2] the test system is CSF-1-induced bone marrow-derived macrophages (BMDM). The experiment in a line: CSF-1-induced murine-derived macrophage (BMDM) survival (CCK-8). The class given is cell-based, BALB/c mice. Conditions: Mus musculus, 168 h, read-out: IC50 inhibition of cell survival, BMDM (CSF-1). As to the method:
BALB/c mice (female, 6 weeks old, healthy) were sacrificed. Bone marrow cells were taken from their femurs and tibia, and seeded into a 96-well culture plate at appropriate densities (90 µL per well) after erythrobiasis treatment. 100 ng/mL of CSF-1 factor was added to each well to induce macrophages (Bone marrow-derived macrophages, BMDM), and compounds at various concentrations were added and the plate was allowed for incubation for 7 days. A solvent control group (negative control) was set. After 7 day-exposure of the cells to the compounds, 10 µL of CCK-8 reagent was added to each well. The culture plate was placed in an incubator at 37° C. for 2-4 h, and then was read with a full-wavelength microplate reader setting at the wavelength of 450 nm.

The subject of assay [3] is CSF-1-induced human macrophages (PBMC-derived CD14+ monocytes). The experiment in a line: Survival of CSF-1-induced human macrophages from PBMC (CCK-8). The class given is cell-based. The settings on record: Homo sapiens, 168 h, read-out: IC50 inhibition of cell survival, PBMC (CSF-1). As to the method: Cryopreserved human-derived peripheral blood (peripheral blood from healthy donors) mononuclear cells (PBMCs) were taken out of liquid nitrogen for recovery. After recovery, the cells were re-suspended at 50 million/mL with the running buffer and DNAase I was added at a final concentration of 100 µg/mL and the plate was allowed for incubation for 15 min at room temperature. After centrifugation at 300 g for 5 min, the supernatant was discarded. The pellet was re-suspended at 50 million cells/mL with the running buffer, and the suspension was filtered through a 70 µM filter screen into a flow tube. The cells were sorted by using CD14+ monocyte negative selection beads sorting kit from […] company. According to the manufacture’s instructions, the specific experimental procedures were as follows.
After cells were re-suspended at 50 million cells/mL, 50 µL of the cocktail was added to each one mL of samples. The samples were incubated at room temperature for 5 min. The magnetic beads were vortexed for 30 sec, and added to the samples. The samples were incubated for further 5 min. The sample volumes were made up to 2.5 mL. The samples were placed on a magnetic frame ([…], #18000) for 2.5 min. […] The plate was placed in an incubator at 37° C. for 2-4 h, and then was read with an adjustable wavelength microplate reader setting at a wavelength of 450 nm.

For assay [4], the system named is mouse colon cancer MC38 xenografts. The experiment in a line: Pharmacodynamic experiment, growth of subcutaneous MC38 xenografts. The class given is in vivo. Conditions: for TV (mean ±SEM) D0: day 0 (baseline); for TGI D7 / TV (mean ±SEM) D7: day 7; for TGI D14 / TV (mean ±SEM) D14: day 14; for TGI D20 / TV (mean ±SEM) D20: day 20; for TGI D24 / TV (mean ±SEM) D24: day 24. As to the method:
MC38 cells in good condition were re-suspended to 25 million cells/mL. 200 µL of cell suspension was inoculated subcutaneously in the right armpit of each mouse. When the tumor cells formed subcutaneous xenograft in the mice and grew to an average volume of approximately 100 mm^3, the mice were randomly assigned to the dosing group and the control group. The test compounds were prepared at the desired concentrations and corresponding equal amount of solvent was used as a solvent control. The drugs were administrated orally, and administrated once per day for 24 consecutive days.
During the dosing period, the xenograft volumes of the mice and the weights of the mice were measured every 2-4 days. The experiment was terminated 24 days after dosing.
The tumor volume (TV) was calculated as TV = ½×a×b^2, where “a” and “b” are the length and width of an xenograft, respectively.
Statistical tests were performed using the t test, with p≤0.05 representing a significant difference.

The IC50 is the concentration that inhibits the measured activity by half. Consider `CNC(=O)c1cccc2cc(Oc3ccnc(NC(=O)c4ccc(N5C[C@@H](C)N[C@@H](C)C5)cc4)c3)ccc12` [Compound I], for which the “TGI / tumor inhibition rate” value in assay [1] was 45.8%. Besides, the IC50 in assay [2] was found to be 10.2 ± 0.8 nM. Further, the IC50 in assay [3] stood at 30.5 ± 5.1 nM. Moreover, in assay [4] (2.5 mg/kg oral once per day), the “TV (mean ±SEM) D0” value is given as 79±13 mm3, the “TGI D7” value turned out to be 63.3%, the “TV (mean ±SEM) D7” value came to 119±17 mm3 and the “TGI D14” value was determined as 63.0%. Moreover, in assay [4] (2.5 mg/kg oral once per day), the “TV (mean ±SEM) D14” value is listed as 232±39 mm3, the “TGI D20” value was 74.6%, the “TV (mean ±SEM) D20” value was 281±59 mm3 and the “TGI D24” value was 75.3%. In addition, the “TV (mean ±SEM) D24” value in assay [4] (2.5 mg/kg oral once per day) worked out at 348±80 mm3. In assay [4] (10 mg/kg oral once per day), the “TV (mean ±SEM) D0” value came to 79±12 mm3, the “TGI D7” value came to 100.9%, the “TV (mean ±SEM) D7” value is given as 78±15 mm3 and the “TGI D14” value is 90.1%. Moreover, in assay [4] (10 mg/kg oral once per day), the “TV (mean ±SEM) D14” value worked out at 120±42 mm3, the “TGI D20” value worked out at 95.2%, the “TV (mean ±SEM) D20” value stood at 117±46 mm3 and the “TGI D24” value is on record as 93.4%. In addition, in assay [4] (10 mg/kg oral once per day), the “TV (mean ±SEM) D24” value came out at 150±64 mm3. Also, in assay [4] (oral once per day for 24 days), the “growth of murine colon cancer MC38 cell xenografts” value was “significantly inhibited”.

(Values after US20230285389A1, “USE OF CSF-1R KINASE INHIBITOR” (Shanghai Runshi Medical Technology Co., Ltd, priority 2020, published 2023).)
